Measured values: PMC9818021, “Targets, Mechanisms and Cytotoxicity of Half-Sandwich Ir(III) Complexes Are Modulated by Structural Modifications on the Benzazole Ancillary Ligand” (Cancers, 2022)
Read-outs that look alike come from different tables or passages of the source.

Legend:
[1] = Acid dissociation constants from absorbance vs pH; type: physicochemical; conditions: for pKa2: NH dissociation to give the N anion; for pKa: free ligand; for pKa1: water dissociation to give the hydroxo complex
Method: The pH measurements were carried out with a Metrohm 16 DMS Titrino pH meter fitted out with a combined glass electrode with a 3 M KCl solution as a liquid junction. HClO4 and NaOH solution were used to adjust the pH.
(§1) The UV-vis measurements were performed with a Hewlett-Packard 8453A (Agilent Technologies, Palo Alto, CA, USA) photodiode array spectrophotometer with a Peltier temperature control system. Titrations were carried out at 25 °C by adding increasing amounts of DNA solution to the iridium complex solution. The pKa values were measured by analysing the absorbance change of iridium complex solutions recorded at different pH values. The melting experiments were carried out using a DNA solution varying the CIr-complex/CDNA (CD/CP) ratio from 0 to 1, keeping CP constant and recording the absorbance spectra while heating from 25 to 90 °C at 0.3 °C/min.

Qualitative solubility = type: physicochemical; conditions: 1-2 mg, solvent up to 1 mL
Method: Solubility. The solubility of the complexes was qualitatively assessed. Different solvents were added drop-by-drop while shaking to a small amount of complex (around 1–2 mg) in a vial until the solvent added exceeded 1 mL. Afterwards, it was checked if the solid was or not completely dissolved and/or if the solution got coloured.

[2] = Aquation/solvolysis kinetics (UV-vis); type: physicochemical
Method: Aquation/solvolysis. Chloride displacement was qualitatively monitored by ^1H-NMR for some of the complexes in DMSO-d6. The replacement of the chloride by a DMSO molecule was observed as some peaks shifted and some new peaks appeared corresponding to the methyl groups of the DMSO molecule. Aquation/solvolysis equilibria were studied by kinetic UV-vis measurements.
as §1
The slow kinetic measurements were performed with the previous spectrophotometer while the fast kinetic measurements were performed in a stopped flow Bio-Logic SFM-300 spectrophotometer with an absorbance detection system and dead time below 3 ms. The kinetic curves, obtained averaging out at least five shots, were analysed with the Jandel (AISN software, Mapleton, OR) fitting package.

[3] = test system: SW480 (colon adenocarcinoma cells); test: MTT cytotoxicity assay; type: cell-based, human; conditions: SW480, 48 h
Method: (§2) Cell culture. Epithelial ovarian carcinoma cells (A2780) that acquired resistance to cisplatin epithelial ovarian carcinoma cells (A2780cis), colon adenocarcinoma cells (SW480) and epithelial lung adenocarcinoma cells (A549) were provided by Sigma Aldrich. A549 and SW480 cells were grown in Dulbecco′s Modified Eagle′s Medium (DMEM), supplemented with 10% Fetal Bovine Serum (FBS) and 1% penicillin, streptomycin and 1% glutamine for A549 and 1% amphotericin B for SW480. The A2780 and A2780cis were grown in RPMI 1640 supplemented with 10% Fetal Bovine Serum (FBS), 1% glutamine and 1% penicillin, streptomycin and amphotericin B. All cells were incubated in a humidified incubator at 37 °C under a 5% CO2 atmosphere and grown in 100 mm culture dishes to approximately 70–80% confluence. For subculturing, cells were detached with Trypsin-EDTA (Sigma). A549-gal were derived from A549 cultured in glucose-free medium supplemented with 10 mM galactose (Sigma) for at least 10 passes.
(§3) Cytotoxicity. MTT Assay and IC50 estimation. The cytotoxicity of 1[C,NH-Cl], 2[C,NMe-Cl], 3[N,NH-Cl]Cl, 4[N,NMe-Cl]Cl, 5[CNH2,NH-Cl]Cl, 6[CNH2,S-Cl]Cl, 7[CO,NH-Cl] and 8[CO,S-Cl] in A2780, A2780cis, SW480 and A549 carcinoma cells was evaluated by the MTT colorimetric assay. Cells were seeded in 96-well plates at 5000 cells per well and incubated at 37 °C, 5% CO2. After 24 h, the medium was removed and replaced with fresh medium with different concentrations of the compounds under study, and they were incubated for 48 h. Final DMSO concentration was kept below 0.7% in wells. For a negative control, one sequence of cells was left untreated and for vehicle control, cells treated with DMSO were included. For cell viability experiments preincubating with NAC (N-Acetyl-L-Cysteine), the cells were pre-treated with NAC, 10 mM for 2 h before the incubation with complex 1[C,NH-Cl] for 24 h. Then, the medium was removed from the wells, and 100 µL MTT (5 mg/mL) was added. After an incubation time of 4 h, 100 μL of solubilizing detergent solution (SDS, 10% in HCL 0.01 M) was added and kept in the incubator overnight. Cell growth inhibition was detected by measuring the absorbance of each well at 595 nm using a BioTek Cytation5 microplate reader. Each test was repeated in quadruplicate in three independent experiments for each cell line. The percentage of survival cells was calculated using absorbance measurements compared with control and the IC50 estimation using Graph Pad Prism version 6.01.

[4] = test system: A549 (epithelial lung adenocarcinoma cells); test: MTT cytotoxicity assay; type: cell-based, human; conditions: A549, 48 h
Method: as §2, §3

[5] = test system: A2780cis (ovarian, acquired resistance to cisplatin); test: MTT cytotoxicity assay; type: cell-based, human; conditions: A2780cis, 48 h
Method: as §2, §3

[6] = test system: A2780 (epithelial ovarian carcinoma cells); test: MTT cytotoxicity assay; type: cell-based, human; conditions: A2780, 48 h
Method: as §2, §3

With `C[S+](C)(=O)[Ir]1[c]2ccccc2-c2[nH]c3ccccc3[n+]21.Cc1c(C)c(C)[c-](C)c1C.[Cl-]` [1[C,NH-DMSO]+, [(η^5-Cp*)Ir(DMSO)(κ^2-N,C-pbim)]Cl] the pKa2 [1] was 8.44 ± 0.03 and the Solubility in water (Qualitative solubility) was “soluble in dimethyl sulfoxide and water”.
For `c1ccc(-c2nc3ccccc3[nH]2)cc1` [2-phenylbenzimidazole], the pKa ([1]; deprotonation of the pyridine type N atom, read-out: pKa1) was 5.2 ± 0.1 and the pKa ([1]; pyrrole type N atom, read-out: pKa2) was 11.8 ± 0.1.
With `Cc1c(C)c(C)[c-](C)c1C.Cn1c2[n+](c3ccccc31)[Ir]([S+](C)(C)=O)[c]1ccccc1-2` [2[C,NMe-DMSO]+] the Acid-base equilibrium ([1]; absorbance vs pH) was “did not exhibit any acid–base equilibrium”.
Work on `Cc1c(C)c(C)[c-](C)c1C.[OH2+][Ir]1[n+]2ccccc2-c2[nH]c3ccccc3[n+]21` [3[N,NH-H2O]2+] yielded a pKa2 [1] of 8.44 ± 0.06 and a pKa1 [1] of 6.08 ± 0.04.
Work on `Cc1c(C)c(C)[c-](C)c1C.Cn1c2[n+](c3ccccc31)[Ir]([OH2+])[n+]1ccccc1-2` [4[N,NMe-H2O]2+] yielded a pKa1 [1] of 7.48 ± 0.01.
`Cc1c(C)c(C)[c-](C)c1C.[OH2+][Ir]1[NH2+]c2ccccc2-c2[nH]c3ccccc3[n+]21` [5[CNH2,NH-H2O]2+] showed a pKa2 [1] of 11.30 ± 0.17 and a pKa1 [1] of 7.48 ± 0.04.
For `Cc1c(C)c(C)[c-](C)c1C.[OH2+][Ir]1[NH2+]c2ccccc2-c2sc3ccccc3[n+]21` [6[CNH2,S-H2O]2+], the “kaq (Cl-complex to H2O-complex)” value ([2]; aqueous solution) was “(2.12 ± 0.01) × 10^−4 s-1” and the pKa1 [1] was 8.70 ± 0.04.
For `C[S+](C)(=O)[Ir]1[O]c2ccccc2-c2[nH]c3ccccc3[n+]21.Cc1c(C)c(C)[c-](C)c1C` [7[CO,NH-DMSO]+], the pKa2 [1] was 9.06 ± 0.06.
In the case of `C[S+](C)(=O)[Ir]1[O]c2ccccc2-c2sc3ccccc3[n+]21.Cc1c(C)c(C)[c-](C)c1C` [8[CO,S-DMSO]+], the “kDMSO (Cl-complex to DMSO-complex)” value ([2]; in DMSO) is reported as “(3.11 ± 0.25) × 10^−4 s-1”.
`N.N.[Cl][Pt][Cl]` [cisPt, cisplatin, reference compound] gave an IC50 [3] of 34 ± 1 µM, an IC50 [4] of 33 ± 6 µM and an IC50 [5] of 60 ± 1 µM. It also gave an IC50 [6] of 7 ± 1 µM.
